Experimental data as given in PMC7606276, “The Antibacterial Effects of New N-Alkylpyridinium Salts on Planktonic and Biofilm Bacteria” (Frontiers in Microbiology, 2020).
Where two headings read alike, the source gives them in different places.

Legend:
[1] = test system: CHO-K1 cells; experiment: MTT cell viability assay on CHO-K1 cells; format: cell-based, Chinese hamster; conditions: 24 h exposure
Protocol: Standard MTT assay (3-(4,5-dimethylthiazol-2-yl)-2,5-diphenyltetrazolium bromide; Sigma-Aldrich, Prague, Czechia) was used according to the manufacturer’s protocol on the CHO-K1 (Chinese hamster ovary, ECACC, Salisbury, United Kingdom) in order to compare the effect of different compounds within the series. The cells were cultured according to ECACC recommended conditions and seeded in a density of 8000 per well as described previously ([Soukup et al., 2020]). […] Thereafter, CHO-K1 cells were exposed to two-fold diluted series A, B, C or ten-fold diluted sodium hypochlorite for 24 h. Then the medium was replaced by a medium containing 0.5 mg/ml of MTT and the cells were allowed to produce formazan for approximately 3 h under surveillance. Thereafter, the medium with MTT was removed and crystals of formazan were dissolved in DMSO (100 μl/well). Cell viability was assessed spectrophotometrically by the amount of formazan produced. The absorbance was measured at 570 nm on Synergy HT (BioTek, Winooski, VT, United States). IC50 (half maximal inhibitory concentration) was then calculated from the control – subtracted triplicates using non-linear regression (four parameters) by GraphPad Prism 5.03 or 7.03 software (GraphPad Software Inc., San Diego, CA, United States). Final IC50 and SEM (standard error of the mean) values were obtained as a mean of three independent measurements.

[2] = test system: Enterococcus faecalis DSM 16431; experiment: MBC of planktonic E. faecalis at different initial bacterial densities; format: cell-based
Protocol: The antibacterial susceptibility of planktonic bacteria was determined by the broth microdilution method according to the standard M07-A1 ([CLSI, 2018]) and optimized as described previously ([Marek et al., 2015]; [Dolezal et al., 2016]). All antibacterial compounds were dissolved in dimethyl sulfoxide (DMSO p.a., Sigma-Aldrich, Prague, Czechia). The wells of the 96-well microtiter plates contained 200 μL of Mueller-Hinton broth (MHB, HiMedia, Cadersky-Envitek, Prague, Czechia) with two-fold serial dilutions of the QACs (500–0.49 μmol/L) and were inoculated with 10 μL of exponentially grown bacterial suspension adjusted densitometrically to match 0.5 McFarland scale. […] The MBCs were determined for all prepared compounds as the concentrations that provided ≥99.9% decrease in the bacterial number after subculture of 10 μL aliquots from each microtiter well in a corresponding new microtiter plate where each well contained 200 μL of fresh MHB. The MBC was determined as the lowest concentration which corresponded to a well without visible bacterial growth after a further 24 h of incubation at 35 ± 1°C. To ensure that no bacteria had survived, the content of the well was inoculated on an agar plate to confirm the absence of bacterial growth.
To evaluate the effect of bacterial density on the antibacterial activity of the QACs, E. faecalis suspensions from an overnight culture were prepared in the range from 10^6 to 10^10 CFU/mL in Brain Heart Infusion broth (BHI, VWR International BVBA, Leuven, Belgium) by either diluting or concentrating bacterial suspensions. The MBCs corresponding to E. faecalis suspensions with different initial bacterial densities were determined only for the compound A14 in the concentration range between 500 and 0.49 μM prepared by 2-fold serial dilutions. The MBCs were evaluated as described above after the bacteria were exposed to the QACs for 3 min, 60 min or 24 h. The growth rate of tested E. faecalis suspensions at different initial bacterial densities was monitored every 30 min during 7 h of incubation by measuring the optical density (OD600). The values were fitted with the logistic equation

[3] = test system: E. faecalis biofilms on titanium surface; experiment: Biofilm susceptibility assay, live/dead staining CLSM; format: cell-based, Enterococcus faecalis; conditions: for biofilm surface coverage change during the treatment: 1, 3 and 60 min of treatment; for proportion of live cells in biofilm: after 60 min of treatment
Protocol: To grow the biofilms, an overnight culture of E. faecalis (average viable bacterial concentration of 1 × 10^8 CFU/ml) was diluted 100-fold in BHI. E. faecalis biofilms were formed on titanium radial disks (commercially pure titanium, grade 2) with 7 mm diameter and 1 mm thickness. Prior to the experiments all disks were sandblasted (FerroEcoBlast Europe; Microblast ceramic beads B120) to expose fresh titanium surface, cleaned in 70% ethanol and autoclaved at 134°C for 20 min. The biofilms were grown for 3 days at 37°C ± 1°C without shaking or changing of media to achieve a surface coverage of approximately 25% and a surface bacterial density of ∼1.5 × 10^11 bacteria […]. Biofilms grown on a titanium surface were exposed to 1.5 ml of A14, B14, and C14 dissolved in BHI for 1, 3, and 60 min. After treatment the individual disks were rinsed with saline solution to remove QACs as well as unattached bacteria. In laser treated biofilms samples were treated with QACs for 1 min followed by 10 s of Er:YAG – SSP laser treatment. The LightWalker Er:YAG (Fotona, Ljubljana, Slovenia) was set with the following parameters: laser wavelength 2940 nm; contact handpiece H14, Flat Sweeps fiber tip 400/14 positioned 5 mm above the biofilm disk, energy 20 mJ, frequency 15 Hz, water off, air off, single pulse modality – SSP (super short pulse – 50 μs). The titanium disks with their biofilm were positioned at the bottom of cylindrical irrigation system (7.5 mm diameter and 2 cm high) in the presence of 1.5 ml of either saline or the QAC dissolved in BHI. The antibacterial concentration was 250 μM which was the highest soluble QAC concentration in BHI broth. The rinsed biofilms were stained with 5 μL of premixed saline-diluted Syto 9 and propidium iodide stock solutions (1: 300) from LIVE/DEAD^TM BacLight^TM Bacterial Viability Kit L7012 (Thermo Fisher Scientific, Eugene, OR, United States). After 5 min of incubation in the dark the samples were observed by fluorescence microscope Zeiss Axio Observer Z1 equipped with confocal unit LSM 800 (CLSM). Z-stacks and tiles were taken at 100× or 20× magnification at three randomly selected view fields. Image acquisition and control of the microscope were performed with ZEN 2.3 (ZEISS GmbH, Germany). For the 100× magnification, blue 488 nm and yellow 561 nm lasers were set to 1% intensity, GaAsP PMT detectors to 700 V, pinhole to 71 μm, and the size of the acquired 8-bit images was 3476 × 3476 pixels. For the 20× magnification, blue 488 nm and yellow 561 nm lasers were set to 0.85% intensity, GaAsP PMT detectors to 700 V, pinhole to 50 μm and the size of acquired 8-bit images was 1306 × 1306 pixels. The typical Z-step of the Z-stack was 1 μm for 100× magnification and 3.26 μm for 20× magnification. The images were composed of four different view fields. A custom script was written (Image J) and used to evaluate the effect of treatment on the fraction of dead cells and biofilm surface coverage.

[4] = test system: E. faecalis plankton and biofilm; experiment: Comparison of effectiveness in plankton and biofilm (matched fraction of dead cells); format: cell-based, Enterococcus faecalis; conditions: for dilution in plankton needed to match the fraction of dead cells in the biofilm: high density E. faecalis suspension 2.4 × 10^9 CFU/mL
Excerpt: In plankton suspensions we were able to reach bactericidal concentration for all tested QACs. The situation was quite different in biofilms. The concentrations that work in plankton were not sufficient to kill all bacteria in the biofilm. […] Unfortunately, due to the solubility limit, it was not possible to increase the concentration of the QACs to concentrations that would kill all bacteria in the biofilm. Nevertheless, we can compare the effectiveness in plankton and biofilm if we decrease the concentration of biocide in the plankton to match the fraction of the dead cells in the biofilm. […] The experiment was performed at high density E. faecalis suspensions (2.4 × 10^9 CFU/mL) to mimic the high density of bacteria in a biofilm. By comparing QACs effectiveness at high initial planktonic densities we have largely eliminated the effect of the bacterial density and estimated the effect of biofilm induced changes on QACs sensitivity. One has to be careful, however, as bacterial cells in plankton differ from biofilm not only in cell density but also in cell metabolism and extracellular matrix viscoelasticity. To match the fraction of dead cells in the biofilm, the 10-fold dilution of compounds A14 and B14 were needed, whereas only 4-fold dilution of compound C14 was required. […] The activity of QACs in biofilms relative to plankton was two orders of magnitude […] than usually reported in the literature. Although our biofilms were mature, they were relatively thin (up to 10 μm) which may explain the relatively high efficiency of the QACs against biofilms. Similar observations have been made for S. mutans biofilms, where biofilm cells were only 8 times less susceptible to QACs compared to plankton bacteria ([López Pérez et al., 2017]).

[5] = test system: human hepatoma cell line; parameters: method as in Christen et al., 2017; conditions: cytotoxicity, ref Christen et al., 2017; cited from earlier work
[6] = test system: osteosarcoma cybrid cells; parameters: method as in Datta et al., 2017; conditions: cytotoxicity, ref Datta et al., 2017; cited from earlier work
[7] = test system: Human alveolar cells; parameters: method as in Kwon et al., 2019; conditions: cytotoxicity, ref Kwon et al., 2019; cited from earlier work

CCCCCCCCCCCC[n+]1ccccc1 [Compound A12, 1-dodecylpyridinium]
IC50 ([1]; Cricetulus griseus): 38.8 ± 0.9 µM

CCCCCCCCCCCCCC[n+]1ccccc1 [Compound A14]
MBC ([2]; DSM16431, 0.05 h, 3 min exposure, initial CFU/mL 10^6, read-out: MBC 3 min): 63 µM | MBC ([2]; DSM16431, 0.05 h, 3 min exposure, initial CFU/mL 10^7, read-out: MBC 3 min): 63 µM | MBC ([2]; DSM16431, 0.05 h, 3 min exposure, initial CFU/mL 10^8, read-out: MBC 3 min): 31 to 63 µM | MBC ([2]; DSM16431, 0.05 h, 3 min exposure, initial CFU/mL 10^9, read-out: MBC 3 min): 250 µM | MBC ([2]; DSM16431, 0.05 h, 3 min exposure, initial CFU/mL 10^10, read-out: MBC 3 min): > 250 µM | MBC ([2]; DSM16431, 1 h, 60 min exposure, initial CFU/mL 10^6, read-out: MBC 60 min): 31 µM | MBC ([2]; DSM16431, 1 h, 60 min exposure, initial CFU/mL 10^7, read-out: MBC 60 min): 31 µM | MBC ([2]; DSM16431, 1 h, 60 min exposure, initial CFU/mL 10^8, read-out: MBC 60 min): 63 µM | MBC ([2]; DSM16431, 1 h, 60 min exposure, initial CFU/mL 10^9, read-out: MBC 60 min): 125 µM | MBC ([2]; DSM16431, 1 h, 60 min exposure, initial CFU/mL 10^10, read-out: MBC 60 min): 250 µM | MBC ([2]; DSM16431, 24 h, 24 h exposure, initial CFU/mL 10^6, read-out: MBC 24 h): 16 to 31 µM | MBC ([2]; DSM16431, 24 h, 24 h exposure, initial CFU/mL 10^7, read-out: MBC 24 h): 16 to 31 µM | MBC ([2]; DSM16431, 24 h, 24 h exposure, initial CFU/mL 10^8, read-out: MBC 24 h): 31 µM | MBC ([2]; DSM16431, 24 h, 24 h exposure, initial CFU/mL 10^9, read-out: MBC 24 h): 31 to 63 µM | MBC ([2]; DSM16431, 24 h, 24 h exposure, initial CFU/mL 10^10, read-out: MBC 24 h): 250 µM | MBC ([2]; DSM16431, 24 h, after 24 h, 10^6 CFU/ml initial bacterial density, read-out: relative MBC value per bacterial cell): 2.1e-05 µM | MBC ([2]; DSM16431, 24 h, after 24 h, 10^10 CFU/ml initial bacterial density, read-out: relative MBC value per bacterial cell): 2.7e-08 µM | IC50 ([1]; Cricetulus griseus): 24.7 ± 0.2 µM | biofilm surface coverage change during the treatment ([3]; 250 μM): did not change significantly | proportion of live cells in biofilm ([3]; 250 μM): 18% | dilution in plankton needed to match the fraction of dead cells in the biofilm [4]: 10 fold

CCCCCCCCCCCC[n+]1cccc(Cl)c1.[Br-] [Compound B12, 1-dodecyl-3-chloropyridinium bromide]
IC50 ([1]; Cricetulus griseus): 25.5 ± 2.5 µM | melting point: 68.5 to 69.2 °C

CCCCCCCCCCCCCC[n+]1cccc(Cl)c1.[Br-] [Compound B14, 1-tetradecyl-3-chloropyridinium bromide]
IC50 ([1]; Cricetulus griseus): 17.2 ± 1.3 µM | biofilm surface coverage change during the treatment ([3]; 250 μM): did not change significantly | proportion of live cells in biofilm ([3]; 250 μM): 14% | dilution in plankton needed to match the fraction of dead cells in the biofilm [4]: 10 fold

CCCCCCCCCCCCCCCC[n+]1cccc(Cl)c1.[Br-] [Compound B16, 1-hexadecyl-3-chloropyridinium bromide]
IC50 ([1]; Cricetulus griseus): 12.5 ± 1.1 µM | melting point: 91.4 to 92.2 °C

CCCCCCCCCCCC[n+]1ccn(CCO)c1 [Compound C12]
IC50 ([1]; Cricetulus griseus): 1.43 ± 3 µM

CCCCCCCCCCCCCC[n+]1ccn(CCO)c1.[Br-] [Compound C14, 3-tetradecyl-1-(2-hydroxyethyl)imidazolium bromide]
IC50 ([1]; Cricetulus griseus): 1.19 ± 0.9 µM | biofilm surface coverage change during the treatment ([3]; 250 μM): did not change significantly | fraction of dead cells in biofilm ([3]; after 1 min of treatment, 250 μM): majority of cells in the biofilm were dead | fraction of dead bacteria in biofilm ([3]; after 3 min of treatment, 250 μM): 86 ± 4% | proportion of live cells in biofilm ([3]; 250 μM): 3% | resistance of biofilm bacteria compared to planktonic bacteria [4]: 4 fold | dilution in plankton needed to match the fraction of dead cells in the biofilm [4]: 4 fold

CCCCCCCCCCCCCCCC[n+]1ccn(CCO)c1 [Compound C16]
IC50 ([1]; Cricetulus griseus): 1.03 ± 1 µM | melting point: 49.2 to 50.1 °C

[Na+].[O-]Cl [Sodium hypochlorite, reference compound]
IC50 [1]: 6.45 ± 1.1 µM | biofilm coverage ([3]; after 1 min of exposure, 3% V/V, positive control): below 1%

benzalkonium chloride
EC50 [5]: ~12.4 µM | IC50 [6]: ~22.8 µM | IC50 [7]: ~14.8 µM
